Key:
[1] = system: IHMGECs; assay: Intracellular pH in IHMGECs; type: cell-based, human; details: exposure to Roxa, in vitro
From the text: It was recently discovered that a hypoxic environment is beneficial for meibomian gland (MG) function. The mechanism(s) underlying this effect was unknown, but may be due to an increase in the levels of hypoxia-inducible factor 1α (HIF1a). In other tissues, HIF1α is the primary regulator of cellular responses to hypoxia and HIF1α expression can be induced by multiple stimuli, including hypoxia and low oxygen mimetic agents. In the current studies described in this Example, human eyelid tissues were stained for HIF1α. Immortalized human MG epithelial cells (IHMGECs) were cultured for varying time periods under normoxic (21% O2) or hypoxic (1% O2) conditions, in the presence or absence of the low oxygen mimetic agent Roxadustat (Roxa). IHMGECs were then processed for the analysis of cell number, HIF1α expression, lipid-containing vesicles, neutral and polar lipid content, DNase II activity and intracellular pH. […] The data support that the beneficial effect of hypoxia on the MG is mediated through an increased expression of HIF1α.

[2] = system: IHMGECs; assay: HPTLC analysis of nonpolar lipids and phospholipids in IHMGEC lipid extracts; type: cell-based, human; details: Roxa, 4 days
Description: Authenticated IHMGECs were grown and passaged in keratinocyte serum-free medium (KSFM) with 5 ng/mL epidermal growth factor (EGF) and 50 μg/mL bovine pituitary extract (BPE) (Thermo Fisher Scientific, Waltham, Mass.) under 21% O2 (normoxia) [Liu et al. (2010) Investigative ophthalmology & visual science 51:3993-4005; McDermott et al. (2018) Current eye research 43:1097-1101; Liu et al. (2013) Investigative ophthalmology & visual science 54:2541-2550]. Upon reaching 60% to 70% confluence, culture media were replaced by a 1:1 mixture of Dulbecco's modified Eagle's medium and Ham's F12 (DMEM/F12, Corning Life Sciences, Tewksbury, Mass.), supplemented with 10% fetal bovine serum (FBS, Atlanta Biologicals, Flowery Branch, Ga.) [Sullivan et al. (2014) Investigative ophthalmology & visual science 55:3866-3877; Liu et al. (2014) JAMA ophthalmology 132:226-228]. Cells were cultured for 4-10 days under 21% O2 (normoxic) or 1% O2 (hypoxic) conditions. Culture plates of cells in the hypoxic condition were incubated inside hypoxia chambers filled with a premade 1% O2, 5% CO2 and 94% N2 gas mixture (Linde Gas North America, Hammond, Ind.), according to published protocols in Liu et al. (2019) The ocular surface 17(2):310-317 and Wright and Shay (2006) Nat Protoc 1:2088-2090. Following cell medium changes, the chambers were re-flushed with the gas mixture before returning to the incubator. Cells were cultured in the presence or absence of 50 μM Roxa (Selleck Chemical, Houston, Tex.) under normoxic or hypoxic conditions for 4 to 10 days. Cell culture experiments (n=3 wells/treatment) were repeated at least 3 times.
Cells seeded in 10-cm polystyrene-coated dishes (Corning, Falcon) were extracted with chloroform and methanol, and the lipid extractions were separated by high-performance thin-layer chromatography (HPTLC), as previously described in Liu et al. Toxicology 2014; 320:1-5, Liu and Ding (2014) Investigative ophthalmology & visual science 55:5596-5601, and Liu et al. (2015) Cornea 34:342-346. In brief, for nonpolar lipid analysis, the plate (Silica Gel 60, Merck, Darmstadt, Germany) was developed in hexane: diethyl ether: acetic acid (80:20:1.5, vol/vol/vol) alone. For phospholipids analysis, the plate was developed sequentially in chloroform:ethanol:water (60:30:5 vol/vol/vol) and then hexane:diethyl ether:acetic acid (80:20:1.5, vol/vol/vol) [Liu and Ding (2014) Investigative ophthalmology & visual science 55:5596-5601]. Bands were visualized according to published protocols [Ponec et al. (1988) Journal of lipid research 29:949-961], and the intensities of bands were quantified using ImageJ [Liu and Ding (2014) Investigative ophthalmology & visual science 55:5596-5601].
To examine whether 1% O2 exposure and/or Roxa administration stimulate the accumulation of neutral lipids within IHMGECs [Liu et al. (2019) Ocul Surf 17:310-317], IHMGECs were treated with Roxa ([…]) in either normoxic (21% O2) or hypoxic (1% O2) environments conditions for 4 days.

[3] = under either normoxic or hypoxic conditions, vs controls

Cc1nc(C(=O)NCC(=O)O)c(O)c2ccc(Oc3ccccc3)cc12 [Roxa, roxadustat]
pH in IHMGECs [1]: decreases
amount of cholesterol esters in IHMGECs [2]: Neither Roxa nor 1% O2 had any effect
amount of lysophosphatidylcholines in IHMGECs [2]: Neither Roxa nor 1% O2 had any effect
amount of phosphatidic acid in IHMGECs [2]: Neither Roxa nor 1% O2 had any effect
amount of phosphatidylcholine in IHMGECs [2]: Neither Roxa nor 1% O2 had any effect
amount of phosphatidylethanolamine in IHMGECs [2]: Neither Roxa nor 1% O2 had any effect
amount of phosphatidylinositol in IHMGECs [2]: Neither Roxa nor 1% O2 had any effect
amount of wax esters in IHMGECs [2]: Neither Roxa nor 1% O2 had any effect
expression of unidentified polar lipids in IHMGECs (HPTLC) [2]: appeared to enhance
levels of free fatty acids (FFAs) in IHMGECs (HPTLC) [2, 3]: increased
levels of triglycerides in IHMGECs (HPTLC) [2, 3]: increased

— patent publication US20220347167A1, “A NEW TREATMENT FOR MEIBOMIAN GLAND DYSFUNCTION” (The Schepens Eye Research Institute, Inc., priority 2019, published 2022)
